From ChEMBL document CHEMBL3132777, “Novel proteinprotein interaction inhibitor of Nrf2Keap1 discovered by structure-based virtual screening” (Medchemcomm, 2014)
Activity calls are given as the source filed them. The calls are words filed in the database; no cut-off is given here.

Tests used:
[1] = tested on: HepG2; assay: Induction of Nrf2 transcription activity in human HepG2-ARE-C8 cells assessed as ARE gene expression at 20 to 100 uM after 24 hrs by cell-based luciferase reporter assay; assay type: functional
[2] = tested on: HepG2; assay: Induction of Nrf2 transcription activity in human HepG2-ARE-C8 cells assessed as ARE gene expression at 20 to 100 uM after 12 hrs by cell-based luciferase reporter assay; assay type: functional
[3] = tested on: HepG2; assay: Induction of Nrf2 transcription activity in human HepG2-ARE-C8 cells assessed as ARE gene expression after 12 to 24 hrs by cell-based luciferase reporter assay; assay type: functional
[4] = tested on: HepG2; assay: Induction of Nrf2 transcription activity in human HepG2-ARE-C8 cells assessed as increase in ARE gene expression at 200 uM by cell-based luciferase reporter assay relative to untreated control; assay type: functional
[5] = target: Kelch-like ECH-associated protein 1 (Homo sapiens, UniProt Q14145); assay: Inhibition of FITC-9mer Nrf2 peptide amide/Keap1 Kelch domain (unknown origin) interaction after 30 mins by fluorescence polarization assay
Sequence of Kelch-like ECH-associated protein 1 (Q14145 whole entry, the tested form may be a part): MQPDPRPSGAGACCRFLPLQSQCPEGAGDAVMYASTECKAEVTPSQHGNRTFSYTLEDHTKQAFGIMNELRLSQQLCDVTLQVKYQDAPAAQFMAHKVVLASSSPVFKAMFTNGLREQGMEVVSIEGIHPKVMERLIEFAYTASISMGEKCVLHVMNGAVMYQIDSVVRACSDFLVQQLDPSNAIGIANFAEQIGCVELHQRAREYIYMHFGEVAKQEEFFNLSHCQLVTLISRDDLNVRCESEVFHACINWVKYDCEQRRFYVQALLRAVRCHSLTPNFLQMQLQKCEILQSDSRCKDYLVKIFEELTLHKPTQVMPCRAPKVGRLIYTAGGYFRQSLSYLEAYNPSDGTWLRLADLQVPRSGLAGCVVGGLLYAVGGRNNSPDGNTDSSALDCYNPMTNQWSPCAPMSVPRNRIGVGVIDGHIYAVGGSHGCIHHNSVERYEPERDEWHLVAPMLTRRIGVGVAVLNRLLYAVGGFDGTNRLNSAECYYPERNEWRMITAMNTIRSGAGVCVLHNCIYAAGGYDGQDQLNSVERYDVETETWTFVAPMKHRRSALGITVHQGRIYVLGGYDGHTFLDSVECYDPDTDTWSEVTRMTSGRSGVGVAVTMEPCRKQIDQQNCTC

[6] = tested on: HepG2; assay: Cytotoxicity against human HepG2-ARE-C8 cells at 200 uM; assay type: cell-based; conditions: hepg2, 200 µM

**Q.** With `CC(C)(C)c1cc(O)ccc1O` as the compound, how does the Activity [1] read?
**A.** inactive

**Q.** What about the Activity [2] of the same compound?
**A.** Active

**Q.** What does the source list for `O=C(N/N=C/c1ccc(-c2ccc(C(=O)O)cc2)o1)N/N=C/c1ccc(-c2ccc(C(=O)O)cc2)o1`?
**A.** Activity [3]: Dose-dependent effect; fold change (FC) [4]: 10; EC50 [5]: 9.8 µM; Activity [6]: Non-toxic
